The record followed here is US12391686B2, “Compounds and uses thereof” (Foghorn Therapeutics Inc., priority 2019, dated 2025).

The target in this test is T1, Nanoluciferase-BRD9 fusion protein (3×FLAG-NLuc-BRD9) in SYO-1 cells (Homo sapiens, UniProt Q9H8M2).
T1 construct: expressed in transfected cells; host or cells: SYO-1
T1 sequence (Q9H8M2 1-597): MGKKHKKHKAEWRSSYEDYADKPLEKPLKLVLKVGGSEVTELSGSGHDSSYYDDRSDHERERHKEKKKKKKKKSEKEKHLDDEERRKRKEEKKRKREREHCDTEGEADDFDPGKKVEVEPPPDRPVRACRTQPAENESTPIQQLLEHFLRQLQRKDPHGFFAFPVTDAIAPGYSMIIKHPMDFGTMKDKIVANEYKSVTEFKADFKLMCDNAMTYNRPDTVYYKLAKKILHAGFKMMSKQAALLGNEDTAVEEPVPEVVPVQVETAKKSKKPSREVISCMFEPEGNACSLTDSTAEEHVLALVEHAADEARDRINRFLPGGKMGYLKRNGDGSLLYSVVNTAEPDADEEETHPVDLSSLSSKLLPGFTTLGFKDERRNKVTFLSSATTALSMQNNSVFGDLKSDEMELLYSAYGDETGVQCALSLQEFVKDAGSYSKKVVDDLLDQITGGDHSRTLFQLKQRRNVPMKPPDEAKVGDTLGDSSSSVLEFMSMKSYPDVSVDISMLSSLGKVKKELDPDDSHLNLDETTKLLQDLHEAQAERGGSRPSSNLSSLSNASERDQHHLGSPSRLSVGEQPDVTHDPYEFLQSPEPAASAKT
Description: SYO1 BRD9 NanoLuc Degradation Assay. The class given is cell-based. Particulars: Table 6B; SYO-1 cells expressing 3×FLAG-NLuc-BRD9, 6 hours incubation, 1 μM top dose; read-out: SYO1 BRD9-NanoLuc degradation IC50. How it is done: Procedure: A stable SYO-1 cell line expressing 3×FLAG-NLuc-BRD9 was generated. On day 0 cells were seeded in 30 μL media into each well of 384-well cell culture plates. The seeding density was 8000 cells/well. On day 1, cells were treated with 30 nL DMSO or 30 nL of 3-fold serially DMSO-diluted compounds (10 points in duplicates with 1 μM as final top dose). Subsequently plates were incubated for 6 hours in a standard tissue culture incubator and equilibrated at room temperature for 15 minutes. Nanoluciferase activity was measured by adding 15 μL of freshly prepared Nano-Glo Luciferase Assay Reagent (Promega N1130), shaking the plates for 10 minutes and reading the bioluminescence using an EnVision reader.
Results: The Inhibition % was calculated using the following formula: % Inhibition=100×(LumHC−Lumsample)/(LumHC−LumLC). DMSO treated cells are employed as High Control (HC) and 1 μM of a known BRD9 degrader standard treated cells are employed as Low Control (LC).

The structures appear in SMILES notation.

Regarding `COc1cc(-c2cn(C)c(=O)c3cnc(N(C)C)cc23)cc(OC)c1CN1CC(S(=O)(=O)NCCN2CCN(c3ccc4c(c3)C(=O)N(C3CCC(=O)NC3=O)C4=O)CC2)C1` (stereo not drawn) [Compound D32], the DC50 was under 10 nM.

On to `COc1cc(-c2cn(C)c(=O)c3cnc(N(C)C)cc23)cc(OC)c1CN1CC2CN(C(=O)CCOCCOc3ccc4c(c3)C(=O)N(C3CCC(=O)NC3=O)C4=O)CCC21` (stereo not drawn) [Compound D33], for which the DC50 was under 10 nM.

Turning to `COc1cc(-c2cn(C)c(=O)c3cnc(N(C)C)cc23)cc(OC)c1CN(C)C12CC(C(=O)NCCCCCOc3cccc4c3C(=O)N(C3CCC(=O)NC3=O)C4=O)(C1)C2` (stereo not drawn) [Compound D34], the DC50 was under 10 nM.

On to `COc1cc(-c2cn(C)c(=O)c3cnc(N(C)C)cc23)cc(OC)c1CN(C)CC12CC(C(=O)NCCCCCNc3cccc4c3C(=O)N(C3CCC(=O)NC3=O)C4=O)(C1)C2` (stereo not drawn) [Compound D35], for which the DC50 is under 10 nM.

Regarding `COc1cc(-c2cn(C)c(=O)c3cnc(N(C)C)cc23)cc(OC)c1CN(C)CC12CC(C(=O)NCCCCCOc3cccc4c3C(=O)N(C3CCC(=O)NC3=O)C4=O)(C1)C2` (stereo not drawn) [Compound D36], the DC50 was under 10 nM.

On to `COc1cc(-c2cn(C)c(=O)c3cnc(N(C)C)cc23)cc(OC)c1CN1CC(S(=O)(=O)NCCOCCOCCNc2cccc3c2C(=O)N(C2CCC(=O)NC2=O)C3=O)C1` (stereo not drawn) [Compound D37], for which the DC50 is under 10 nM.

For the compound `COc1cc(-c2cn(C)c(=O)c3cnc(N(C)C)cc23)cc(OC)c1CN(C)CC12CC(C(=O)NCCCCCOc3ccc4c(c3)C(=O)N(C3CCC(=O)NC3=O)C4=O)(C1)C2` (stereo not drawn) [Compound D38], the DC50 was under 10 nM.

As for `COc1cc(-c2cn(C)c(=O)c3cnc(N(C)C)cc23)cc(OC)c1CN(C)CC12CC(C(=O)NCCCCCNc3ccc4c(c3)C(=O)N(C3CCC(=O)NC3=O)C4=O)(C1)C2` (stereo not drawn) [Compound D39], the DC50 was under 10 nM.

Regarding `COc1cc(-c2cn(C)c(=O)c3cnc(N(C)C)cc23)cc(OC)c1CN(C)C12CC(C(=O)NCCCCCOc3ccc4c(c3)C(=O)N(C3CCC(=O)NC3=O)C4=O)(C1)C2` (stereo not drawn) [Compound D40], the DC50 is under 10 nM.

As to `COc1cc(-c2cn(C)c(=O)c3cnc(N(C)C)cc23)cc(F)c1CN1CCC(CCN2CCN(c3ccc4c(c3)C(=O)N(C3CCC(=O)NC3=O)C4=O)CC2)CC1` (stereo not drawn) [Compound D41], the DC50 is under 10 nM.

As to `COc1cc(-c2cn(C)c(=O)c3cnc(N(C)C)cc23)cc(OC)c1CN1CC(CC(=O)N2CCC3(CC2)CC(Oc2ccc4c(c2)C(=O)N(C2CCC(=O)NC2=O)C4=O)C3)C1` (stereo not drawn) [Compound D42], the DC50 is under 10 nM.

`COc1cc(-c2cn(C)c(=O)c3cnc(N(C)C)cc23)cc(OC)c1CN1CC(CCN2CCN(c3ccc4c(c3)C(=O)N(C3CCC(=O)NC3=O)C4=O)CC2)C1` (stereo not drawn) [Compound D43]: the DC50 is at least 1000 nM.

For `COc1cc(-c2cn(C)c(=O)c3cnc(N(C)C)cc23)cc(OC)c1CN1CC(CCCN2CCN(c3ccc4c(c3)C(=O)N(C3CCC(=O)NC3=O)C4=O)CC2)C1` (stereo not drawn) [Compound D44], the DC50 was 10 to 100 nM.

For `COc1cc(-c2cn(C)c(=O)c3cnc(N(C)C)cc23)c2c(c1)N(CCCCCCCCOc1ccc3c(c1)C(=O)N(C1CCC(=O)NC1=O)C3=O)CC2` (stereo not drawn) [Compound D45], the DC50 was in the range of 100 to 1000 nM.

Take `COc1cc(-c2cn(C)c(=O)c3cnc(N(C)C)cc23)c2c(c1)N(CCCCCN1CCC3(CC1)CC(Oc1ccc4c(c1)C(=O)N(C1CCC(=O)NC1=O)C4=O)C3)CC2` (stereo not drawn) [Compound D46]: the DC50 was under 10 nM.

As to `COc1cc(-c2cn(C)c(=O)c3cnc(N(C)C)cc23)c2c(c1)N(CCCCCCCCOc1cccc3c1C(=O)N(C1CCC(=O)NC1=O)C3=O)CC2` (stereo not drawn) [Compound D47], the DC50 is 10 to 100 nM.

Consider `COc1cc(-c2cn(C)c(=O)c3cnc(N(C)C)cc23)cnc1CN1CCC(CCN2CCN(c3ccc4c(c3)C(=O)N(C3CCC(=O)NC3=O)C4=O)CC2)CC1` (stereo not drawn) [Compound D48], for which the DC50 was under 10 nM.

Consider `COc1cc(-c2cn(C)c(=O)c3cnc(N(C)C)cc23)cc(OC)c1CN1CC(CN2CC3(CCN(c4ccc5c(c4)C(=O)N(C4CCC(=O)NC4=O)C5=O)C3)C2)C1` (stereo not drawn) [Compound D49], for which the DC50 is under 10 nM.

Consider `COc1cc(-c2cn(C)c(=O)c3cnc(N(C)C)cc23)cc(OC)c1CN1CC(CN2CCC3(CC2)CN(c2ccc4c(c2)C(=O)N(C2CCC(=O)NC2=O)C4=O)C3)C1` (stereo not drawn) [Compound D50], for which the DC50 was under 10 nM.

Turning to `COc1cc(-c2cn(C)c(=O)c3cnc(N(C)C)cc23)cc(OC)c1CN1CC(CN2CCC3(C2)CN(c2ccc4c(c2)C(=O)N(C2CCC(=O)NC2=O)C4=O)C3)C1` (stereo not drawn) [Compound D51], the DC50 was under 10 nM.

For the compound `COc1cc(-c2cn(C)c(=O)c3cnc(N(C)C)cc23)cc(OC)c1CN1CCC(N2CCN(c3ccc4c(c3)C(=O)N(C3CCC(=O)NC3=O)C4=O)CC2)CC1` (stereo not drawn) [Compound D52], the DC50 is under 10 nM.

In the case of `COc1cc(-c2cn(C)c(=O)c3cnc(N(C)C)cc23)cc(OC)c1CN1CCN(C2CCN(c3ccc4c(c3)C(=O)N(C3CCC(=O)NC3=O)C4=O)CC2)CC1` (stereo not drawn) [Compound D53], the DC50 was under 10 nM.

As for `COc1cc(-c2cn(C)c(=O)c3cnc(N(C)C)cc23)cc(OC)c1CN1CCC(CN2CCC3(CC2)CC(Oc2ccc4c(c2)C(=O)N(C2CCC(=O)NC2=O)C4=O)C3)CC1` (stereo not drawn) [Compound D54], the DC50 is under 10 nM.

On to `COc1cc(-c2cn(C)c(=O)c3cnc(N(C)C)cc23)cc(OC)c1CN1CCC(C(=O)N2CCC3(CC2)CC(Oc2ccc4c(c2)C(=O)N(C2CCC(=O)NC2=O)C4=O)C3)CC1` (stereo not drawn) [Compound D55], for which the DC50 was under 10 nM.

As to `COc1cc(-c2cn(C)c(=O)c3cnc(N(C)C)cc23)cc(OC)c1CN1CCC2(CC1)CC(N1CCN(c3ccc4c(c3)C(=O)N(C3CCC(=O)NC3=O)C4=O)CC1)C2` (stereo not drawn) [Compound D56], the DC50 was under 10 nM.

With `COc1cc(-c2cn(C)c(=O)c3cnc(N(C)C)cc23)cc(OC)c1CN1CCC(CN2CCN(c3ccc4c(c3)C(=O)N(C3CCC(=O)NC3=O)C4=O)CC2)CC1` (stereo not drawn) [Compound D57], the DC50 is under 10 nM.

As to `COc1cc(-c2cn(C)c(=O)c3cnc(N(C)C)cc23)cc(OC)c1CN1CCC2(CC1)CC(Oc1ccc3c(c1)C(=O)N(C1CCC(=O)NC1=O)C3=O)C2` (stereo not drawn) [Compound D58], the DC50 was under 10 nM.

Regarding `COc1cc(-c2cn(C)c(=O)c3cnc(N(C)C)cc23)cc(OC)c1CN1CCC(CCN2Cc3cc4c(cc3C2)C(=O)N(C2CCC(=O)NC2=O)C4=O)CC1` (stereo not drawn) [Compound D59], the DC50 was under 10 nM.

For `COc1cc(-c2cn(C)c(=O)c3cnc(N(C)C)cc23)cc(OC)c1CN1CCC(CN2Cc3cc4c(cc3C2)C(=O)N(C2CCC(=O)NC2=O)C4=O)CC1` (stereo not drawn) [Compound D61], the DC50 is under 10 nM.

On to `COc1cc(-c2cn(C)c(=O)c3cnc(N(C)C)cc23)cc(OC)c1CN1CCC(CCCN2Cc3cc4c(cc3C2)C(=O)N(C2CCC(=O)NC2=O)C4=O)CC1` (stereo not drawn) [Compound D62], for which the DC50 was under 10 nM.

As for `COc1cc(-c2cn(C)c(=O)c3cnc(N(C)C)cc23)cc(OC)c1CN1CC2(CC(N3Cc4cc5c(cc4C3)C(=O)N(C3CCC(=O)NC3=O)C5=O)C2)C1` (stereo not drawn) [Compound D63], the DC50 was under 10 nM.

`COc1cc(-c2cn(C)c(=O)c3cnc(N(C)C)cc23)cc(OC)c1CN1CC2(CCC(N3Cc4cc5c(cc4C3)C(=O)N(C3CCC(=O)NC3=O)C5=O)CC2)C1` (stereo not drawn) [Compound D64]: the DC50 is 100 to 1000 nM.

Regarding `COc1cc(-c2cn(C)c(=O)c3cnc(N(C)C)cc23)cc(OC)c1CN1CCC2(CC1)CCN(CC#Cc1ccc3c(c1)C(=O)N(C1CCC(=O)NC1=O)C3=O)C2` (stereo not drawn) [Compound D65], the DC50 is under 10 nM.

Regarding `COc1cc(-c2cn(C)c(=O)c3cnc(N(C)C)cc23)cc(OC)c1CN1CC(C(=O)N2CC3(CCN(c4ccc5c(c4)C(=O)N(C4CCC(=O)NC4=O)C5=O)C3)C2)C1` (stereo not drawn) [Compound D66], the DC50 was under 10 nM.

For `COc1cc(-c2cn(C)c(=O)c3cnc(N(C)C)cc23)cc(OC)c1CN1CC(CN2CCC3(CC2)CC(Oc2ccc4c(c2)C(=O)N(C2CCC(=O)NC2=O)C4=O)C3)C1` (stereo not drawn) [Compound D67], the DC50 was under 10 nM.

As for `COc1cc(-c2cn(C)c(=O)c3cnc(N(C)C)cc23)cc(OC)c1CN1CCC2(CC1)CN(c1ccc3c(c1)C(=O)N(C1CCC(=O)NC1=O)C3=O)C2` (stereo not drawn) [Compound D68], the DC50 is under 10 nM.

For `COc1cc(-c2cn(C)c(=O)c3cnc(N(C)C)cc23)cc(OC)c1CN1CC(N2CCN(c3ccc4c(c3)C(=O)N(C3CCC(=O)NC3=O)C4=O)CC2)C1` (stereo not drawn) [Compound D69], the DC50 is under 10 nM.

For `COc1cc(-c2cn(C)c(=O)c3cnc(N(C)C)cc23)cc(OC)c1CN1CCN(c2ccc3c(c2)C(=O)N(C2CCC(=O)NC2=O)C3=O)CC1` (stereo not drawn) [Compound D70], the DC50 is under 10 nM.

Turning to `COc1cc(-c2cn(C)c(=O)c3cnc(N(C)C)cc23)cc(OC)c1CN1CCN(C(C)COc2cccc3c2C(=O)N(C2CCC(=O)NC2=O)C3=O)CC1` (stereo not drawn) [Compound D71], the DC50 was under 10 nM.
